Here are results for 3 compounds from patent publication US20260085094A1, “STAPLED PEPTIDE AND USE THEREOF” (priority 2021, published 2026).

pEC50: −log10 of the molar value.

A word on the AUC(0-t): it is exposure summed from dosing to a finite time, without extrapolation to infinity. Low values mean less exposure, high ones more exposure. The term Cmax denotes the peak of the concentration-time curve. For orientation: Tmax means the time at which the peak concentration occurs. In general, half-life refers to the time needed for the level to fall by half in the phase considered. A lower half-life goes with rapid decline. The term pEC50 denotes the EC50 on a negative log10 scale, so that one unit is a factor of ten.

Series [1] in a line: in vivo. As to conditions: sc, 0.048 mg/kg. Details: species or system C57BL/6 mice. On the procedure:
(§1) To test the in vivo pharmacokinetics of the polypeptides of the present disclosure in C57BL/6 mice. The pharmacokinetic characteristics of the polypeptides of the present disclosure after intravenous injection and subcutaneous injection in rodents were tested according to SOP. In the experiment, the polypeptide was prepared into a clear solution, which was administered to mice by single subcutaneous injection (SC, 0.048 mpk). The vehicle for subcutaneous injection was citrate buffer (20 mM, pH=7). The whole blood was collected and prepared to obtain the plasma. The drug concentration was analyzed by LC-MS/MS method, and the pharmacokinetic parameters were calculated using Phoenix WinNonlin software.

The nature of series [2]: in vivo. Details: species or system SD rats. As to conditions: rat, sc, 0.048 mg/kg. On the procedure: as §1, with “SD rats.” for “C57BL/6 mice.”, “after” for “after intravenous injection and”, “rats” for “mice”, “for” for “for subcutaneous”
In another series the target is T1, GIPR (Homo sapiens, UniProt P48546).
T1 construct: host or cells: CHO
T1 sequence (P48546 22-466): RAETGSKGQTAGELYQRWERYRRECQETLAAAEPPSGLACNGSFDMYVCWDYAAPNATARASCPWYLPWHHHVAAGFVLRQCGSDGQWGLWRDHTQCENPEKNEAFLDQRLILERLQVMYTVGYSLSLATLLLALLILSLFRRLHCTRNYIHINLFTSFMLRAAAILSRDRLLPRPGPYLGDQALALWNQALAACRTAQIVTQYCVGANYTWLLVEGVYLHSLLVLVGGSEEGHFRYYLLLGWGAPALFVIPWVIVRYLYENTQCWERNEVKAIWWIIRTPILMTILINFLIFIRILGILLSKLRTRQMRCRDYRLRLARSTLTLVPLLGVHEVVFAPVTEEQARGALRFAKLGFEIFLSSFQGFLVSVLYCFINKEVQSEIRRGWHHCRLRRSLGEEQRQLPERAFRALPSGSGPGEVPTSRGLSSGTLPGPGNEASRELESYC
Nature of the series: In vitro GIPR agonistic activity test (cAMP assay). The format is cell-based. As to conditions: GIPR CHO cell line, read-out: GIP-1 EC50. On the procedure: (§2) [table] The compounds to be tested were diluted 4-fold at 10 wells, starting from an initial concentration of 30 μM. […] The TopSeal-A film was removed, and readout was performed on EnVision.

Another series concerns the target T2, GCGR (Homo sapiens, UniProt P47871).
T2 construct: host or cells: HEK293
Kind of series: In vitro GCGR agonistic activity test (cAMP assay). In kind it is cell-based. As to conditions: GCGR HEK293 cell line, read-out: GCG EC50. On the procedure: as §2
Background: cAMP levels reflect the balance of adenylyl cyclase and phosphodiesterase activity.

A short description of series [3]: in vivo. As to conditions: cynomolgus monkey, sc, 0.02 mg/kg. Details: species or system cynomolgus macaques. On the procedure: as §1, with “cynomolgus macaques.” for “C57BL/6 mice.”, “mammals” for “rodents”, “cynomolgus macaques” for “mice”, “0.02” for “0.048”
For the next series, the target named is T3, GLP-1R (Homo sapiens, UniProt P43220).
T3 construct: host or cells: HEK293
Kind of series: In vitro GLP-1R agonistic activity test (cAMP assay). In kind it is cell-based. Particulars: GLP-1R HEK293 cell line. On the procedure: as §2

T2 sequence (P47871 26-477, species assumed): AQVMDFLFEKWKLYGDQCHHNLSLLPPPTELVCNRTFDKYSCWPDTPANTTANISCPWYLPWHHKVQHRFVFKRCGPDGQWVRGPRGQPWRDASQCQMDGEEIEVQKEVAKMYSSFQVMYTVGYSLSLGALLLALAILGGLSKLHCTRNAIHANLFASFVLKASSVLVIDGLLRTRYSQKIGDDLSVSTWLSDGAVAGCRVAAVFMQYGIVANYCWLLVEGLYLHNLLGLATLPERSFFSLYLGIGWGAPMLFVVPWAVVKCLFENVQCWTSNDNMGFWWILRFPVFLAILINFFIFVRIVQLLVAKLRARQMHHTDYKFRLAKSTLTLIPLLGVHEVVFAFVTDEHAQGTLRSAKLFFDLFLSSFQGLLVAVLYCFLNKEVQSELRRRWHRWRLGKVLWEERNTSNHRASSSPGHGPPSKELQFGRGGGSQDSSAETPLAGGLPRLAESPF
T3 sequence (P43220 24-463, species assumed): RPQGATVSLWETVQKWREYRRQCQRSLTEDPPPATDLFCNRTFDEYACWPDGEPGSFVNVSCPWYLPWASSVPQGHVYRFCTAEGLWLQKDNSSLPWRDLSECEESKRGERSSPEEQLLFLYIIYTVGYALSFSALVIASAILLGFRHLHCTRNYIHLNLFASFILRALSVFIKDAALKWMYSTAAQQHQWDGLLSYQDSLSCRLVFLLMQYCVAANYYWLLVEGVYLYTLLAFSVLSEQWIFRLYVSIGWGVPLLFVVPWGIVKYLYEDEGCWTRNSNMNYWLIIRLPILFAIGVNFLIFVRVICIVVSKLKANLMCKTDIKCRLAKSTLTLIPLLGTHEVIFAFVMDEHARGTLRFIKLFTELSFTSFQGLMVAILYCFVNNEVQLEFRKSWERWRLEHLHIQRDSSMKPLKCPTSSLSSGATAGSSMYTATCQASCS

Consider `CC[C@H](C)[C@H](NC(=O)[C@H](Cc1ccccc1)NC(=O)[C@H](C)NC(=O)[C@@H]1CCCCNC(=O)CN(C(=O)COCCOCCNC(=O)COCCOCCNC(=O)CC[C@H](NC(=O)CCCCCCCCCCCCCCCCCCC(=O)O)C(=O)O)CC(=O)NCCCC[C@H](NC(=O)[C@H](CCCCN)NC(=O)[C@H](CC(=O)O)NC(=O)[C@H](CC(C)C)NC(=O)[C@](C)(CC(C)C)NC(=O)[C@@H](NC(=O)[C@H](CO)NC(=O)[C@H](Cc2ccc(O)cc2)NC(=O)[C@H](CC(=O)O)NC(=O)[C@H](CO)NC(=O)[C@@H](NC(=O)[C@H](Cc2ccccc2)NC(=O)[C@@H](NC(=O)CNC(=O)[C@H](CCC(N)=O)NC(=O)C(C)(C)NC(=O)[C@@H](N)Cc2ccc(O)cc2)[C@@H](C)O)[C@@H](C)O)[C@@H](C)CC)C(=O)N[C@@H](C)C(=O)N[C@@H](CCC(N)=O)C(=O)N1)C(=O)N[C@@H](CCC(=O)O)C(=O)N[C@@H](Cc1ccc(O)cc1)C(=O)N[C@@H](CC(C)C)C(=O)N[C@@H](CC(C)C)C(=O)N[C@@H](CCC(=O)O)C(=O)NCC(=O)NCC(=O)N1CCC[C@H]1C(=O)N[C@@H](CO)C(=O)N[C@@H](CO)C(=O)NCC(=O)N[C@@H](C)C(=O)N1CCC[C@H]1C(=O)N1CCC[C@H]1C(=O)N1CCC[C@H]1C(=O)N[C@@H](CO)C(N)=O` [WX001], for which the area under the curve AUC(0-t) in the series “in vivo [1]” (C57BL/6, mouse) was 1830 nM·h; in “in vivo [2]” (SD), 718 nM·h; in the series “in vivo [3]”, 5290 nM·h. The Cmax in the series “in vivo [1]” (C57BL/6, mouse) came out at 0.058 µM; in “in vivo [2]” (SD), 0.017 µM; in “in vivo [3]” it was 0.049 µM. Also, the Tmax in the series “in vivo [1]” (C57BL/6, mouse) is 12 h; in the series “in vivo [2]” (SD) it was 24 h; in the series “in vivo [3]”, 32 h. Moreover, the half-life in “in vivo [1]” (C57BL/6, mouse) is 16 h; in “in vivo [2]” (SD), 25 h; in “in vivo [3]”, 61 h. For the same compound, the pEC50 is 9.89 at GIPR, 9.26 at GCGR and 10.14 on GLP-1R.
As to `CC[C@H](C)[C@H](NC(=O)[C@H](Cc1ccccc1)NC(=O)[C@H](C)NC(=O)C(C)(C)NC(=O)[C@@H]1CCCCNC(=O)CN(C(=O)COCCOCCNC(=O)COCCOCCNC(=O)CC[C@H](NC(=O)CCCCCCCCCCCCCCCCCCC(=O)O)C(=O)O)CC(=O)NCCCC[C@H](NC(=O)[C@H](CC(=O)O)NC(=O)[C@H](CC(C)C)NC(=O)[C@](C)(CC(C)C)NC(=O)[C@@H](NC(=O)[C@H](CO)NC(=O)[C@H](Cc2ccc(O)cc2)NC(=O)[C@H](CC(=O)O)NC(=O)[C@H](CO)NC(=O)[C@@H](NC(=O)[C@H](Cc2ccccc2)NC(=O)[C@@H](NC(=O)CNC(=O)[C@H](CCC(N)=O)NC(=O)C(C)(C)NC(=O)[C@@H](N)Cc2ccc(O)cc2)[C@@H](C)O)[C@@H](C)O)[C@@H](C)CC)C(=O)N[C@@H](CCCCN)C(=O)N[C@@H](C)C(=O)N1)C(=O)N[C@@H](CCC(=O)O)C(=O)N[C@@H](Cc1ccc(O)cc1)C(=O)N[C@@H](CC(C)C)C(=O)N[C@@H](CC(C)C)C(=O)N[C@@H](CCC(=O)O)C(=O)NCC(=O)NCC(=O)N1CCC[C@H]1C(=O)N[C@@H](CO)C(=O)N[C@@H](CO)C(=O)NCC(=O)N[C@@H](C)C(=O)N1CCC[C@H]1C(=O)N1CCC[C@H]1C(=O)N1CCC[C@H]1C(=O)N[C@@H](CO)C(N)=O` [WX002], the Cmax in the series “in vivo [1]” (C57BL/6, mouse) is 0.069 µM; in the series “in vivo [2]” (SD), 0.03 µM; in the series “in vivo [3]” it was 0.054 µM. Also, the AUC(0-t) worked out at 2010 nM·h in the series “in vivo [1]” (mouse), 1060 nM·h in the series “in vivo [2]” and 5100 nM·h in the series “in vivo [3]”. The Tmax in “in vivo [1]” (mouse) amounted to 8 h; in “in vivo [2]” it was 20 h; in the series “in vivo [3]”, 24 h. The figures for the half-life in the series “in vivo [1]” (mouse), in the series “in vivo [2]” and in the series “in vivo [3]” were 10 h, 14 h and 52 h, respectively.
`CC[C@H](C)[C@H](NC(=O)[C@H](Cc1ccccc1)NC(=O)[C@H](C)NC(=O)C(C)(C)NC(=O)[C@H](CCC(N)=O)NC(=O)[C@H](C)NC(=O)[C@H](CCCCN)NC(=O)[C@H](CCCCN)NC(=O)[C@H](CC(=O)O)NC(=O)[C@H](CC(C)C)NC(=O)[C@](C)(CC(C)C)NC(=O)[C@@H](NC(=O)[C@H](CO)NC(=O)[C@H](Cc1ccc(O)cc1)NC(=O)[C@H](CC(=O)O)NC(=O)[C@H](CO)NC(=O)[C@@H](NC(=O)[C@H](Cc1ccccc1)NC(=O)[C@@H](NC(=O)CNC(=O)[C@H](CCC(N)=O)NC(=O)C(C)(C)NC(=O)[C@@H](N)Cc1ccc(O)cc1)[C@@H](C)O)[C@@H](C)O)[C@@H](C)CC)C(=O)N[C@@H](CCC(=O)O)C(=O)N[C@H]1CCCCNC(=O)CN(C(=O)COCCOCCNC(=O)COCCOCCNC(=O)CC[C@H](NC(=O)CCCCCCCCCCCCCCCCCCC(=O)O)C(=O)O)CC(=O)NCCCC[C@@H](C(=O)NCC(=O)NCC(=O)N2CCC[C@H]2C(=O)N[C@@H](CO)C(=O)N[C@@H](CO)C(=O)NCC(=O)N[C@@H](C)C(=O)N2CCC[C@H]2C(=O)N2CCC[C@H]2C(=O)N2CCC[C@H]2C(=O)N[C@@H](CO)C(N)=O)NC(=O)[C@H](CC(C)C)NC(=O)[C@H](CC(C)C)NC1=O` [WX005]: the AUC(0-t) in “in vivo [1]” (C57BL/6, mouse) is 2130 nM·h; in the series “in vivo [2]” (SD) it was 1210 nM·h; in “in vivo [3]” it was 5810 nM·h. The Cmax in “in vivo [1]” (C57BL/6, mouse) was 0.072 µM; in the series “in vivo [2]” (SD), 0.026 µM; in the series “in vivo [3]” it was 0.043 µM. For the same compound, the Tmax in “in vivo [1]” (C57BL/6, mouse) stood at 12 h; in the series “in vivo [2]” (SD) it was 28 h; in “in vivo [3]”, 48 h. Moreover, the half-life was 15 h in the series “in vivo [1]” (C57BL/6, mouse); 23 h in “in vivo [2]” (SD); 100 h in “in vivo [3]”. Besides, the pEC50 at GIPR is 9.85; at GCGR, 8.85; on GLP-1R it was 10.20.
